Laboratory results from the NIST ThermoML archive (doi:10.1007/s10765-008-0390-4).
± gives the expanded uncertainty stated by the source.

How the values were obtained:
[1] = 101 kPa, Liquid
[2] = xn = mol fraction of the nth substance listed; details: 101 kPa, Liquid, x1 = 1

SMILES	mass density ([1]; 288.15 K) [kg/m3]	mass density ([1]; 293.15 K) [kg/m3]	mass density ([1]; 298.15 K) [kg/m3]	mass density ([1]; 303.15 K) [kg/m3]	mass density ([1]; 308.15 K) [kg/m3]	mass density ([1]; 313.15 K) [kg/m3]	mass density ([2]; 288.15 K) [kg/m3]	mass density ([2]; 293.15 K) [kg/m3]	mass density ([2]; 298.15 K) [kg/m3]	mass density ([2]; 303.15 K) [kg/m3]	mass density ([2]; 308.15 K) [kg/m3]	mass density ([2]; 313.15 K) [kg/m3]
c1ccccc1 [benzene]	884.246 ± 0.15	878.918 ± 0.16	873.582 ± 0.16	868.233 ± 0.17	862.871 ± 0.17	857.498 ± 0.17						
CCCCO [butan-1-ol] + ClC(Cl)Cl							813.373 ± 0.24	809.573 ± 0.24	805.762 ± 0.25	801.923 ± 0.25	798.053 ± 0.25	794.147 ± 0.25
ClC(Cl)Cl [trichloromethane]	1498.08 ± 0.47	1488.64 ± 0.46	1479.15 ± 0.45	1469.61 ± 0.45	1460.03 ± 0.44	1450.41 ± 0.43						
CCCCO [butan-1-ol]	813.373 ± 0.24	809.573 ± 0.24	805.762 ± 0.25	801.923 ± 0.25	798.053 ± 0.25	794.147 ± 0.25						
CCCCO [butan-1-ol] + c1ccccc1							813.373 ± 0.24	809.573 ± 0.24	805.762 ± 0.25	801.923 ± 0.25	798.053 ± 0.25	794.147 ± 0.25
